According to patent publication US10208034B2, “Quinoline derivative” (ONO PHARMACEUTICAL CO., LTD., priority 2014, dated 2019):

Biological target: T1, Human CYP2C8 (Homo sapiens, UniProt P10632)
T1 construct: purchased Cypex; host or cells: E. coli
T1 sequence (P10632 1-490): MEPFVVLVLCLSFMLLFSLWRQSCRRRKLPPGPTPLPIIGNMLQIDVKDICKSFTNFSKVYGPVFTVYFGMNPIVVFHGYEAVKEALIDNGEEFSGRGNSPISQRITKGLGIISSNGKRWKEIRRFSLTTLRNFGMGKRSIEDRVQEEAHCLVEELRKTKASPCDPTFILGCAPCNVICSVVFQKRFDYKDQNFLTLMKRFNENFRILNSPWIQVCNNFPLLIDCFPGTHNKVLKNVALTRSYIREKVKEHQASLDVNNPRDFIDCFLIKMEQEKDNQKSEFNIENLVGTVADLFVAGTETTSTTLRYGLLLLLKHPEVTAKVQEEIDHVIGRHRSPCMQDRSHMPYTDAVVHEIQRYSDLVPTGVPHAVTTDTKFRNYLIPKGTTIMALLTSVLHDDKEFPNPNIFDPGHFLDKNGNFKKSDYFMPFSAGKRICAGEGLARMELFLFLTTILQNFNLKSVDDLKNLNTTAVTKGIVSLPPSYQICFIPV
Assay: Inhibitory activity of drug-metabolizing enzyme (human CYP2C8 inhibition effect)
Type: in vitro ADME
Details: E. coli-expressed CYP2C8, Luciferin-ME substrate, 37° C. 30 min, from inhibition at 1 and 10 μmol/L
Procedure: The reaction was carried out in a 384-well plate. As the positive control substance (CYP2C8: quercetin), a solution, which had been adjusted with DMSO to have 300 times higher concentration than the final concentration (CYP2C8: 22.5 and 225 μmol/L) and been 75-fold diluted with purified water containing 2.7% acetonitrile, was prepared (CYP2C8: 0.3 and 3 μmol/L). […] Thereafter, 16 μL of luciferase solution was added to stop the reaction and to allow luciferin to emit light, and the luminescence intensity of the reaction solution was measured. The inhibition rate is a reduction rate (inhibition rate) of the luminescence intensity when compared with the control in which the reaction was carried out by the addition of DMSO in place of the test compound solution. The inhibition rate was calculated from the following mathematical formula. Inhibition rate (%)=100−{(luminescence intensity of test compound−background luminescence intensity)/(luminescence intensity of control−background luminescence intensity)×100} [Math. […]
The IC50 value of the compound of the present invention was measured using the measurement method described above.

COc1cc2nccc(Oc3ccc(NC(=O)c4cc(C(C)=O)cn(-c5ccccc5)c4=O)nc3)c2cc1OC [Example 21, 5-acetyl-N-{5-[(6,7-dimethoxy-4-quinolinyl)oxy]-2-pyridinyl}-2-oxo-1-phenyl-1,2-dihydro-3-pyridinecarboxamide]
IC50: > 10 µM

COc1cc2nccc(Oc3ccc(NC(=O)c4c5c(cn(-c6ccccc6)c4=O)C(=O)CCC5)nc3)c2cc1OC [Example 42, N-{5-[(6,7-dimethoxy-4-quinolinyl)oxy]-2-pyridinyl}-3,8-dioxo-2-phenyl-2,3,5,6,7,8-hexahydro-4-isoquinolinecarboxamide]
IC50: > 10 µM
